Source: PMC6599250, “Functional diversity of inhibitors tackling the differentiation blockage of MLL-rearranged leukemia” (Journal of Hematology & Oncology, 2019)
pEC50, pIC50: −log10 of the molar value.

Key:
[1] = test system: P-TEFb/CDK9; conditions: read-out: On target Potency IC50; cited from earlier work
[2] = test system: MYC, PCNA, and MCL-1 levels; parameters: method as in earlier work; conditions: initial pharmacodynamics data analysis; cited from earlier work
[3] = test system: DHODH; parameters: method as in PMID 2743343; conditions: read-out: On target Potency IC50; cited from earlier work
[4] = test system: MLL-fused cell lines (MV4-11, MOLM-13); assay: Cell proliferation, MLL-fused cell lines; type: cell-based; conditions: 4 days of treatment (Fig. 1a), DMSO = 100%
Method: Cells were seeded in the optimal growth medium at 4000–5000 cells/well in a 96 MTP and cultured 18–24 h before inhibitor treatment. Upon treatment with the indicated inhibitor, cells were cultured for 24 h, 96 h, and 168 h and effects on proliferation were determined using alamarBlue Cell Viability Reagent (Thermo Fisher Scientific, Waltham, MA, USA).

[5] = test system: H3K79me2 on HOXA9 and MEIS1; conditions: clinical phase I study; cited from earlier work
[6] = test system: AML patients; conditions: cited from earlier work
[7] = test system: BRD4/2/3; conditions: read-out: On target Potency EC50; cited from earlier work

Q: With `COc1cc(F)ccc1-c1cc(Nc2cc(CS(C)(=N)=O)ccn2)ncc1F` (centres unmarked) [BAY 1251152] as the compound, how does the pIC50 [1] read?
A: 8.52

Q: And the “pharmacodynamics in phase I” value [2]?
A: dose-dependent reduction of MYC, PCNA, and MCL-1 levels

Q: What does the source list for `CC(C)N(C[C@H]1O[C@@H](n2cnc3c(N)ncnc32)[C@H](O)[C@@H]1O)[C@H]1C[C@@H](CCc2nc3cc(C(C)(C)C)ccc3[nH]2)C1` [EPZ-5676]?
A: proliferation inhibited to [4]: 40–50%; H3K79me2 on HOXA9 and MEIS1 in AML patients [5]: significant reduction of H3K79me2 on HOXA9 and MEIS1

Q: Which “clinical activity in AML patients” value ([6]; AML patients harboring diverse driving mutations) does the source give for `Cc1sc2c(c1C)C(c1ccc(Cl)cc1)=N[C@@H](CC(=O)Nc1ccc(O)cc1)c1nnc(C)n1-2` [OTX015] here?
A: partial blast clearance and recovery of platelets

Q: What about the “dose-limiting effect in patients” value ([6]; patients with incomplete bone marrow failure) of the same compound?
A: severe thrombocytopenia as dose-limiting effect

Q: What about the pEC50 [7] of the same compound?
A: 7.72 to 8.00
